Measured values reported in patent US9029359B2, “Heteroaryl Btk inhibitors” (Biogen Idec MA, Inc., priority 2009, dated 2015).
pIC50: −log10 of the molar value.

Target: T1, BTK (Homo sapiens, UniProt Q06187)
T1 construct: purchased Upstate 14-552
Test: In vitro BTK kinase assay: BTK-POLYGAT-LS ASSAY
Format: biochemical
Settings: ATP 10 uM
Procedure, shortened: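 BTK phosphorylation of polyGAT (100 nM final) with ATP at 10 μM final, 10 mM Tris-HCl pH 7.5 kinase buffer, quenched by EDTA after 30 min. Potency given as IC50.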

T1 sequence (Q06187 whole entry): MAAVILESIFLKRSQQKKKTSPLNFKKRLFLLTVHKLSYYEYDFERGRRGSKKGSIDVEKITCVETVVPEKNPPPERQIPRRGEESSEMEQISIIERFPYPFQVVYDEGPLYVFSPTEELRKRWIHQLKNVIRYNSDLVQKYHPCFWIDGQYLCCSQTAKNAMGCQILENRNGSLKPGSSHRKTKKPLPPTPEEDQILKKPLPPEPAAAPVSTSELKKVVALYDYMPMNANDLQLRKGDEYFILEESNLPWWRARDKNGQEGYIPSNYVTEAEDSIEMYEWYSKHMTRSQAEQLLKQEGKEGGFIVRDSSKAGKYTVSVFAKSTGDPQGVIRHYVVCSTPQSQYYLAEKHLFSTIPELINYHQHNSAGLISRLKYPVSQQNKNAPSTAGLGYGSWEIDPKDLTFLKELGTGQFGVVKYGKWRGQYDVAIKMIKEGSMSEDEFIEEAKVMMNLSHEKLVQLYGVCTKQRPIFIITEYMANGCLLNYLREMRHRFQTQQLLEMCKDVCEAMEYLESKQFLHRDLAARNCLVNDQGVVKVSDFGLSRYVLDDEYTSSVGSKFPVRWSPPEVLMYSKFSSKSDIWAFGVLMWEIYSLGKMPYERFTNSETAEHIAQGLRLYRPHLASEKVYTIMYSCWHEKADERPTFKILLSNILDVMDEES

pIC50 | Compound
> 7.00 | CCC[C@@H](Nc1cccc(Cl)c1)C(=O)N[C@@H]1CCCN(c2ncnc3[nH]ccc23)C1 [Example 215]
> 7.00 | O=C(CNc1ccccc1OC1CCCC1)N[C@@H]1CCCN(c2ncnc3[nH]ccc23)C1 [Example 222]
> 7.00 | CC[C@@H](Nc1cc(F)cc(Cl)c1)C(=O)N[C@@H]1CCCN(c2ncnc3[nH]ccc23)C1 [Example 225]
> 7.00 | C[C@@H](Nc1cc(F)cc(Cl)c1)C(=O)N[C@@H]1CCCN(c2ncnc3[nH]ccc23)C1 [Example 232]
> 7.00 | C[C@H](O)[C@@H](Nc1cccc(Cl)c1)C(=O)N[C@@H]1CCCN(c2ncnc3[nH]ccc23)C1 [Example 233]
> 7.00 | O=C(CNc1ccccc1Cl)N[C@@H]1CCCN(c2ncnc3[nH]ccc23)C1 [Example 236]
6.00 to 7.00 | Cc1cccc(NCC(=O)N[C@@H]2CCCN(c3ncnc4[nH]ccc34)C2)c1 [Example 237]
> 7.00 | C[C@@H](Nc1cccc(Cl)c1)C(=O)N[C@@H]1CCCN(c2ncnc3[nH]ccc23)C1 [Example 238]
> 7.00 | O=C(CNc1ccccc1Oc1ccccc1)N[C@@H]1CCCN(c2ncnc3[nH]ccc23)C1 [Example 241]
6.00 to 7.00 | CN(C)S(=O)(=O)c1ccc(F)cc1NCC(=O)N[C@@H]1CCCN(c2ncnc3[nH]ccc23)C1 [Example 246]
> 7.00 | O=C(CNc1cccc(Cl)c1)N[C@@H]1CCCN(c2ncnc3[nH]ncc23)C1 [Example 247]
6.00 to 7.00 | CC(C)Oc1ccccc1NCC(=O)N[C@@H]1CCCN(c2ncnc3[nH]ccc23)C1 [Example 248]
> 7.00 | O=C(CNc1cccc2c1CCCC2)N[C@@H]1CCCN(c2ncnc3[nH]ccc23)C1 [Example 254]
> 7.00 | CC(C)(C)[C@@H](Nc1cccc(Cl)c1)C(=O)N[C@@H]1CCCN(c2ncnc3[nH]ccc23)C1 [Example 255]
6.00 to 7.00 | Cc1ccc(NCC(=O)N[C@@H]2CCCN(c3ncnc4[nH]ccc34)C2)cc1C [Example 258]
> 7.00 | CCCc1ccccc1NCC(=O)N[C@@H]1CCCN(c2ncnc3[nH]ccc23)C1 [Example 259]
6.00 to 7.00 | Cc1c(Cl)cccc1NCC(=O)N[C@@H]1CCCN(c2ncnc3[nH]ccc23)C1 [Example 261]
> 7.00 | CCc1cccc(NCC(=O)N[C@@H]2CCCN(c3ncnc4[nH]ccc34)C2)c1 [Example 262]
> 7.00 | O=C(CNc1cc(F)cc(C(F)(F)F)c1)N[C@@H]1CCCN(c2ncnc3[nH]ccc23)C1 [Example 264]
> 7.00 | O=C(CNc1ccccc1OC1CCCCC1)N[C@@H]1CCCN(c2ncnc3[nH]ccc23)C1 [Example 266]
6.00 to 7.00 | Cc1c(F)cccc1NCC(=O)N[C@@H]1CCCN(c2ncnc3[nH]ccc23)C1 [Example 267]
6.00 to 7.00 | Cc1ccccc1NCC(=O)N[C@@H]1CCCN(c2ncnc3[nH]ccc23)C1 [Example 268]
> 7.00 | COc1ccc(C)cc1NCC(=O)N[C@@H]1CCCN(c2ncnc3[nH]ccc23)C1 [Example 270]
> 7.00 | Cc1c(Cl)cccc1NCC(=O)N[C@@H]1CCCN(c2ncnc3[nH]ccc23)C1 [Example 272]

Further lines, the compound ahead of its results:

Compound | pIC50
CCN(C)S(=O)(=O)c1ccccc1NCC(=O)N[C@@H]1CCCN(c2ncnc3[nH]ncc23)C1 [Example 213] | > 7.00
CC1CCCCN1S(=O)(=O)c1ccccc1NCC(=O)N[C@@H]1CCCN(c2ncnc3[nH]ncc23)C1 (stereo partly drawn) [Example 214] | > 7.00
O=C(CNc1ccccc1S(=O)(=O)N1CCC(C(F)(F)F)CC1)N[C@@H]1CCCN(c2ncnc3[nH]ccc23)C1 [Example 217] | > 7.00
CC(C)c1ccccc1NCC(=O)N[C@@H]1CCCN(c2ncnc3[nH]ncc23)C1 [Example 219] | > 7.00
CC1CCC(C)N1S(=O)(=O)c1ccccc1NCC(=O)N[C@@H]1CCCN(c2ncnc3[nH]ncc23)C1 (stereo partly drawn) [Example 220] | > 7.00
O=C(CNc1ccccc1OCCc1ccccc1)N[C@@H]1CCCN(c2ncnc3[nH]ccc23)C1 [Example 221] | > 7.00
CN(C(=O)CNc1ccccc1)C1CCCN(c2ncnc3[nH]ccc23)C1 (stereo not drawn) [Example 223] | 6.00 to 7.00
CC1CC(C)CN(S(=O)(=O)c2ccccc2NCC(=O)N[C@@H]2CCCN(c3ncnc4[nH]ncc34)C2)C1 (stereo partly drawn) [Example 224] | > 7.00
C[C@@H](O)[C@@H](Nc1cc(F)cc(Cl)c1)C(=O)N[C@H]1CN(c2ncnc3[nH]ncc23)CC[C@@H]1C [Example 226] | > 7.00
O=C(CNc1ccccc1S(=O)(=O)N1CC2CCCC2C1)N[C@@H]1CCCN(c2ncnc3[nH]ncc23)C1 (stereo partly drawn) [Example 227] | > 7.00
O=C(CNc1ccccc1S(=O)(=O)N1CCC(C(F)(F)F)CC1)N[C@@H]1CCCN(c2ncnc3[nH]ncc23)C1 [Example 228] | > 7.00
CC1CCCC(C)N1S(=O)(=O)c1ccccc1NCC(=O)N[C@@H]1CCCN(c2ncnc3[nH]ncc23)C1 (stereo partly drawn) [Example 229] | > 7.00
O=C(N[C@@H](C(=O)N[C@@H]1CCCN(c2ncnc3[nH]ccc23)C1)C1CC1)c1ccccc1O [Example 230] | 6.00 to 7.00
O=C(N[C@@H]1CCCN(c2ncnc3[nH]ncc23)C1)[C@H](Nc1cccc(Cl)c1)C1CC1 [Example 231] | > 7.00
CC(C)c1ccccc1N[C@@H](C(=O)N[C@@H]1CCCN(c2ncnc3[nH]ncc23)C1)C1CC1 [Example 234] | 6.00 to 7.00
O=C(CNc1ccccc1S(=O)(=O)c1ccc(C(F)(F)F)cc1)N[C@@H]1CCCN(c2ncnc3[nH]ncc23)C1 [Example 235] | > 7.00
CC(C)c1ccccc1N[C@@H](C(=O)N[C@@H]1CCCN(c2ncnc3[nH]ccc23)C1)[C@H](C)O [Example 239] | 6.00 to 7.00
CN(C1CCCCC1)S(=O)(=O)c1ccccc1NCC(=O)N[C@@H]1CCCN(c2ncnc3[nH]ncc23)C1 [Example 240] | > 7.00
O=C(CNc1ccccc1S(=O)(=O)N1CCOCC1)N[C@@H]1CCCN(c2ncnc3[nH]ncc23)C1 [Example 242] | > 7.00
O=C(CNc1ccccc1S(=O)(=O)N1CCOCC1)N[C@@H]1CCCN(c2ncnc3[nH]ccc23)C1 [Example 243] | > 7.00
O=C(CNc1ccccc1OC1CCCC1)N[C@@H]1CCCN(c2ncnc3[nH]ncc23)C1 [Example 245] | > 7.00
CC[C@@H](Nc1ccccc1C(C)C)C(=O)N[C@@H]1CCCN(c2ncnc3[nH]ccc23)C1 [Example 249] | 6.00 to 7.00
CC1(C)CCN(S(=O)(=O)c2ccccc2NCC(=O)N[C@@H]2CCCN(c3ncnc4[nH]ccc34)C2)CC1 [Example 250] | > 7.00
O=C(CNc1ccccc1OC1CCCCCC1)N[C@@H]1CCCN(c2ncnc3[nH]ccc23)C1 [Example 251] | > 7.00
O=C(CNc1ccccc1C(=O)N1CCCCC1)N[C@@H]1CCCN(c2ncnc3[nH]ccc23)C1 [Example 253] | 6.00 to 7.00
CC(C)(C)C1CCN(S(=O)(=O)c2ccccc2NCC(=O)N[C@@H]2CCCN(c3ncnc4[nH]ncc34)C2)CC1 [Example 256] | > 7.00
CCC[C@@H](Nc1ccccc1)C(=O)N[C@@H]1CCCN(c2ncnc3[nH]ccc23)C1 [Example 257] | 6.00 to 7.00
CC(C)c1ccccc1N[C@@H](C(=O)N[C@@H]1CCCN(c2ncnc3[nH]ccc23)C1)C(C)C [Example 263] | 6.00 to 7.00
CC(C)(C)C1CCN(S(=O)(=O)c2ccccc2NCC(=O)N[C@@H]2CCCN(c3ncnc4[nH]ccc34)C2)CC1 [Example 265] | > 7.00
CC(C)c1ccccc1N[C@H](C)C(=O)N[C@@H]1CCCN(c2ncnc3[nH]ccc23)C1 [Example 269] | 6.00 to 7.00
